# Data published in patent publication US20060008512A1, “Composition and methods for improved animal performance” (priority 2004, published 2006).
# Where two headings read alike, the source gives them in different places.
# Test system: Hy-Line W-36 White Leghorn hens
# Conditions: for Egg Shell, % (washed, dried): 6 & 10 d rooms combined; for Whole egg weight (mean±SEM): 4 day period after start of test diets
# Method: Experiment 2. […] The photoperiod was 17 hours of light per day (0330 hours to 2030 hours).
# The objective was to use T4 to humanely induce molting in hens that are continuously provided with ad libitum access to palatable feed meeting or exceeding all National Research Council (1994) standards. Developing a fully efficacious yet affordable molting protocol was predicated on determining the minimum effective level for T4 supplementation. Factors that potentially may affect the required level of T4 supplementation include: (1) uncertainty regarding the efficiency of T4 absorption by the gastrointestinal tract, (2) the possibility that continuous dietary ingestion of T4 could trigger substantially different biological responses when compared single daily injections, and (3) the likelihood that daily T4 intake would diminish in parallel with molt-related reductions in feed intake associated with cessation in egg production. A spontaneous and voluntary loss of appetite (anorexia) commonly accompanies seasonal molting and broodiness in a variety of avian species (Berry, 2003; Webster, 2003). Accordingly, the responses of hens to diets containing 10, 20, and 40 mg T4/kg, to bracket the anticipated range of T4 needed to cause an effective molt, were determined.
# [1] = 20 mg/kg of feed 6 d from day 5, Day 30
# [2] = 20 mg/kg of feed 10 d from day 5, Day 7
# [3] = 20 mg/kg of feed 10 d from day 5, Day 10
# [4] = 20 mg/kg of feed 10 d from day 5, Day 14
# [5] = 20 mg/kg of feed 10 d from day 5, Day 30
# [6] = 40 mg/kg of feed 6 d from day 5, Day 7
# [7] = 40 mg/kg of feed 6 d from day 5, Day 10
# [8] = 40 mg/kg of feed 6 d from day 5, Day 14
# [9] = 40 mg/kg of feed 6 d from day 5, Day 30
# [10] = 40 mg/kg of feed 10 d from day 5, Day 7
# [11] = 40 mg/kg of feed 10 d from day 5, Day 10
# [12] = 40 mg/kg of feed 10 d from day 5, Day 14
# [13] = 40 mg/kg of feed 10 d from day 5, Day 30
smiles,measurement,setting,value
"N[C@@H](Cc1cc(I)c(Oc2cc(I)c(O)c(I)c2)c(I)c1)C(=O)O [L-thyroxine, 3,5,3′,5′-tetraiodo-L-thyronine]",Body weight (BW),[1],1521 g
same,Body weight change from day 1 (% BWC),[1],−3.9%
same,Hen-day egg production,"20 mg/kg of feed 6 d from day 5, day 4",94%
same,Hen-day egg production,"20 mg/kg of feed 6 d from day 5, day 6",69%
same,Hen-day egg production,"20 mg/kg of feed 6 d from day 5, day 8",17%
same,Hen-day egg production,"20 mg/kg of feed 6 d from day 5, day 10",0%
same,Hen-day egg production,"20 mg/kg of feed 6 d from day 5, day 12",17%
same,Hen-day egg production,"20 mg/kg of feed 6 d from day 5, day 14",14%
same,Hen-day egg production,"20 mg/kg of feed 6 d from day 5, day 16",33%
same,Hen-day egg production,"20 mg/kg of feed 6 d from day 5, day 18",39%
same,Hen-day egg production,"20 mg/kg of feed 6 d from day 5, day 20",47%
same,Hen-day egg production,"20 mg/kg of feed 6 d from day 5, day 22",64%
same,Hen-day egg production,"20 mg/kg of feed 6 d from day 5, day 24",64%
same,Hen-day egg production,"20 mg/kg of feed 6 d from day 5, day 26",78%
same,Hen-day egg production,"20 mg/kg of feed 6 d from day 5, day 28",89%
same,Hen-day egg production,"20 mg/kg of feed 6 d from day 5, day 30",61%
same,Body weight (BW),"20 mg/kg of feed 10 d from day 5, Day 1",1680 g
same,Body weight (BW),[2],1533 g
same,Body weight change from day 1 (% BWC),[2],−8.8%
same,Body weight (BW),[3],1431 g
same,Body weight change from day 1 (% BWC),[3],−14.8%
same,Body weight (BW),[4],1373 g
same,Body weight change from day 1 (% BWC),[4],−18.3%
same,Body weight (BW),[5],1448 g
same,Body weight change from day 1 (% BWC),[5],−13.8%
same,"Egg Shell, % (washed, dried)","20 mg/kg of feed, Days 2 to 4",8.38 (n = 10) %
same,"Egg Shell, % (washed, dried)","20 mg/kg of feed, Days 5 to 6",8.08 (n = 13) %
same,"Egg Shell, % (washed, dried)","20 mg/kg of feed, Days 7 to 8",5.56 (n = 2) %
same,Egg production,40 mg T4/kg diet for 10 days,cease completely
same,Body weight (BW),"40 mg/kg of feed 6 d from day 5, Day 1",1629 g
same,Body weight (BW),[6],1443 g
same,Body weight change from day 1 (% BWC),[6],−11.4%
same,Body weight (BW),[7],1350 g
same,Body weight change from day 1 (% BWC),[7],−17.1%
same,Body weight (BW),[8],1396 g
same,Body weight change from day 1 (% BWC),[8],−14.3%
same,Body weight (BW),[9],1481 g
same,Body weight change from day 1 (% BWC),[9],−9.1%
same,Hen-day egg production,"40 mg/kg of feed 6 d from day 5, day 4",67%
same,Hen-day egg production,"40 mg/kg of feed 6 d from day 5, day 6",42%
same,Hen-day egg production,"40 mg/kg of feed 6 d from day 5, day 8",8%
same,Hen-day egg production,"40 mg/kg of feed 6 d from day 5, day 10",0%
same,Hen-day egg production,"40 mg/kg of feed 6 d from day 5, day 12",0%
same,Hen-day egg production,"40 mg/kg of feed 6 d from day 5, day 14",0%
same,Hen-day egg production,"40 mg/kg of feed 6 d from day 5, day 16",0%
same,Hen-day egg production,"40 mg/kg of feed 6 d from day 5, day 18",8%
same,Hen-day egg production,"40 mg/kg of feed 6 d from day 5, day 20",25%
same,Hen-day egg production,"40 mg/kg of feed 6 d from day 5, day 22",25%
same,Hen-day egg production,"40 mg/kg of feed 6 d from day 5, day 24",50%
same,Hen-day egg production,"40 mg/kg of feed 6 d from day 5, day 26",17%
same,Hen-day egg production,"40 mg/kg of feed 6 d from day 5, day 28",33%
same,Hen-day egg production,"40 mg/kg of feed 6 d from day 5, day 30",33%
same,Body weight (BW),"40 mg/kg of feed 10 d from day 5, Day 1",1572 g
same,Body weight (BW),[10],1392 g
same,Body weight change from day 1 (% BWC),[10],−11.5%
same,Body weight (BW),[11],1309 g
same,Body weight change from day 1 (% BWC),[11],−16.7%
same,Body weight (BW),[12],1245 g
same,Body weight change from day 1 (% BWC),[12],−20.8%
same,Body weight (BW),[13],1322 g
same,Body weight change from day 1 (% BWC),[13],−15.9%
same,"Egg Shell, % (washed, dried)","40 mg/kg of feed, Days 2 to 4",8.34 (n = 6) %
same,"Egg Shell, % (washed, dried)","40 mg/kg of feed, Days 5 to 6",7.82 (n = 6) %
same,"Egg Shell, % (washed, dried)","40 mg/kg of feed, Days 7 to 8",6.63 (n = 3) %
same,Mortality,"10, 20, 40 mg T4/kg diets, 6 or 10 days",No mortal-ity occurred
same,Whole egg weight (mean±SEM),10 ppm T4,62 ± 2 g
same,Time to reduced egg production,20 and 40 mg T4/kg feed,≤ 4 days
same,Whole egg weight (mean±SEM),20 ppm T4,65 ± 2 g
same,Whole egg weight (mean±SEM),40 ppm T4,65 ± 3 g
same,Size of regressed reproductive tracts at necropsy,hens that had entirely ceased egg production after the test diets,≤ 50 % normal size
